These results are taken from patent US4921871A, “Enolamides, pharmaceutical compositions and methods of use thereof for treating inflammation” (Warner-Lambert Company, priority 1987, dated 1990).

Values joined by “and” are separate entries in the source; they are usually repeats but may differ in a detail not shown here. Identical values can stand only once.

One test concerns the target T1, leukotriene receptor (Cavia porcellus, UniProt Q2NNR5).
T1 construct: Two pairs of lungs (1.3 g) from freshly sacrificed 300 g male guinea pigs; tissue Kuiper Rabbit Farm, Gary, Ind; (animals); host or cells: guinea pig lung, crude membranes
T1 sequence (Q2NNR5 1-340): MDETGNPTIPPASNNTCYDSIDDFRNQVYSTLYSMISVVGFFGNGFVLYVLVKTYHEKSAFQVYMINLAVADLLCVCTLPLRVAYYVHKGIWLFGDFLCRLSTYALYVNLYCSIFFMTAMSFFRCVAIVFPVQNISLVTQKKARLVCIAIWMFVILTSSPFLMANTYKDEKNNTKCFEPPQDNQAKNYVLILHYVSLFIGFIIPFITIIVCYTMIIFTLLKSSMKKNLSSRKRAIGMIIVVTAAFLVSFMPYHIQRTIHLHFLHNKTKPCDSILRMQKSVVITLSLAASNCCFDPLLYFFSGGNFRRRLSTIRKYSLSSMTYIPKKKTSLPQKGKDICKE
Briefly: Binding of 3H-Leukotriene D4 to Guinea Pig Lung Membranes (RBL). As for the experimental part:
Additionally, the activity, of the compounds having the Formula I of the present invention is determined by the well known leukotriene receptor binding assay that is described by R. F. Bruns, W. J. Thomsen and T. A. Pugsley in Life Sciences, 33, 645 (1983) or the Herxheimer in vivo antiallergy test described in H. Herxheimer, J. Physiol. (London), Vol. 177, p. 251 (1952).
[14,15-^3 H]leukotriene D4 (^3 H-LTD4) (25 Ci/mmol and 40 Ci/mmol) is purchased from New England Nuclear. Unlabeled LTC4 is a gift of Ono Pharmaceuticals (Japan). LTC4, LTD4, and LTE4 are purchased as methyl esters from Paesel GmbH (Frankfurt, W. Germany). Concentrations of the Paesel leukotrienes are calculated from their absorbance at 280 nm. Leukotriene esters are saponified overnight under N2 in 3.3% potassium carbonate at room temperature. Tritiated leukotrienes are stored as received from New England Nuclear at -20° C. Ono LTC4 (5 μg/ml) is stored at -60° C. in phosphate buffer pH - 6.8. Saponified Paesel leukotrienes are stored at -60° C. in 3.3% potassium carbonate (pH 9.0-9.5). Aliquots of leukotrienes are taken from stock solutions immediately after thawing, after which the stock solutions are immediately refrozen. 2-Amino-2-(hydroxymethyl)-1,3-propanediol (Tris) is Sigma pH 7.7 pre-set crystals, and dimethylsulfoxide is Aldrich Gold Label. Preparation of crude lung membranes
Two pairs of lungs (1.3 g) from freshly sacrificed 300 g male guinea pigs (older animals gave substantially lower binding) from Kuiper Rabbit Farm, Gary, Ind. are disrupted with a Polytron PT 10 (setting 4) for 30 seconds in 20 ml ice-cold 50 mM Tris adjusted with HCl to pH 7.7 at 25° C. (Tris buffer), filtered through a single layer of gauze to remove connective tissue, and centrifuged at 50,000 xg for ten min. The pellet is resuspended by homogenization with a Polytron in 20 ml Tris buffer, centrifuged at 50,000 xg for ten min., resuspended, incubated at 37° C. for 30 minutes, and centrifuged again. The final pellet is resuspended in Tris buffer and either used fresh or stored at -70° C.
All incubations are in triplicate for 60 minutes at 25° C. in 12×75 mm polystyrene tubes containing 1 ml Tris buffer with 20 mg original tissue wet weight of guinea pig lung membranes, 0.2 nM ^3 H-LTD4 (6,000-11,000 cpm), 10 mM MgCl2, and 1% dimethylsulfoxide. Leukotrienes are diluted in Tris buffer. All other test compounds dissolved at 10 mM in dimethylsulfoxide on the same day as the experiment, and diluted in dimethylsulfoxide to 100× the final incubation concentration. Control incubations receive an equal volume (10 μl) of dimethylsulfoxide; the resulting concentration of dimethylsulfoxide had no effect on binding. ^3 H-LTD4 is diluted to 2 nM in Tris buffer. The membrane suspension (20 mg/0.89 ml) contains sufficient MgCl2 to give 10 mM final concentration in the incubation. […] All additions are performed at 0° C. Immediately after the last addition, the incubation is initiated by agitating the rack of tubes on a vortex mixer and warming to 25° C. in a water bath. Tubes are vortexed at least once more during the incubation to ensure that the membranes remained suspended. Incubations are terminated after 60 minutes by filtering under reduced pressure through 25 mm Whatman GF/B filters followed by rapid washing three times with 4 ml of ice-cold Tris buffer. Filters are added to scintillation vials with 8 ml Formula 947 (New England Nuclear), left overnight, shaken, and the radioactivity counted in a scintillation counter (efficiency 40%). Nonspecific binding, defined as binding of ^3 H-LTD4 in the presence of 100 nM LTC4, is 300-500 cpm for all lots of ^3 H-LTD4. Binding to the filters in the absence of tissue is about 100 cpm, and is not affected by unlabeled LTC4. Specific binding, defined as total binding minus nonspecific binding, varied considerably from lot to lot of ^3 H-LTD4. […]

Test [1] concerns Human Leukocyte Lipoxygenase. In words: Human Leukocyte Lipoxygenase Assay (LDA-H). The format is biochemical. On the procedure:
Whole blood is collected from normal volunteers and spun in a refrigerated centrifuge for four minutes at 1°-6° C. at 3800 g. The buffy coat is manually separated and washed twice with chilled 0.83% NH4 Cl and centrifuged at 1000 RPM for ten minutes at 4° C. The white cell is suspended in culture media-EMEM supplemented with 6% Agamma human serum, tricine buffer, and neomycin and recentrifuged at 1000 g to yield a pellet containing the leukocytes used for the preparation of the acetone pentane powder.
The acetone-pentane powder is prepared utilizing a modification of the procedure reported for human platelet lipoxygenase. See Siegel, et al, Arachidonate Metabolism via Lipoxygenase and 12-L-hydro-peroxy-5 Eicosatetraenoic Acid Peroxidase Sensitive to Antiinflammatory Drugs, Proc. Natl. Acad. Sci., U.S.A. 77:308, 1980 and D. P. Wallach and V. R. Brown, A Novel Preparation of Human Platlet Lipoxygenase, Biochem. Biophys. Acta. 663:361, 1981. Buffy coat prepared above is resuspended in 5-7 volumes of cold 0.1M Tris buffer, pH 7.4 containing 0.154M NaCl. The suspension is centrifuged at 13,300 g for ten minutes at 4° C. The resultant pellet is retained, resuspended in five volumes of cold acetone, recentrifuged at 13,300 g and resuspended in five volumes of cold pentane. The pentane suspension is centrifuged for ten minutes at 13,300 g to give a pellet which is dried in the cold under vacuum with periodic pulverization. The dry powder is stable for several weeks when stored at -80° C.
Enzyme stock solution is prepared in the following manner. About 15 mg of the acetone-pentane powder is suspended in 4 ml of cold tris buffer (0.1M, pH 7.4), allowed to stand for five minutes, and homogenized thoroughly. The homogenate is sonicated three times for 15 seconds each time, diluted to 7 ml with cold tris buffer (0.1M, pH 7.4), and centrifuged at 4° C. for 60 minutes at 13,300 g. The supernatent is retained and diluted to a total of 10 ml with cold tris buffer (0.1M, pH 7.4) to give the stock enzyme solution. Additional dilutions of 2-50 fold are done as necessary to locate optimal enzyme reaction rate in the assay described below.
Substrate solution is prepared at 100 μM or 1.0 μM concentrations of arachidonic acid or linoleic acid in 0.1M tris buffer, pH 9.0 containing 20% ethanol.
The enzyme reaction is followed spectrophotometrically by the appearance of a conjugated diene product at 234 nm. The reaction is monitored at 24° C. using a Gilford Model 2600 spectrophotometer. […] The effects of inhibitors on the reaction are compared with control reactions run under indentical conditions. Routinely, each compounds of the present invention is incubated with the enzyme for five minutes prior to addition of substrate to initiate the reaction. Inhibition expressed as IC50 as molar concentration of the compound required to reduce reaction rate to 50% control.

As to `CN(C)c1ccc(CCc2ccc(NC(=O)C3CS(=O)(=O)c4ccccc4C3=O)cc2)cc1` (stereo not shown) [Example 55], the “RBL, % Inhibition” value at leukotriene receptor (1.00 E -5 M) worked out at 6.0%; at leukotriene receptor (1.00 E -6 M), 5.0%; on leukotriene receptor (2.00 E -5 M), 12.0%; at leukotriene receptor (2.00 E -6 M), 10.0%; at leukotriene receptor (5.00 E -5 M) it was 11.0%; on leukotriene receptor (5.00 E -6 M), 13.0%.

As for `O=C(Nc1ccc(CCc2ccc(Cl)cc2)cc1)C(=O)c1sc2ccccc2c1O` [Example 137, Benzo[b]thiophene-2-acetamide, N-[4-[2-(4-chlorophenyl)ethyl]phenyl]-3-hydroxy-α-oxo], the “RBL, % Inhibition” value on leukotriene receptor (1.00 E -4 M) came to 12.0%.

For `COc1ccc(CCc2ccc(NC(=O)C(=O)c3sc4ccc(Cl)cc4c3O)cc2)cc1OC` [Example 139, Benzo[b]thiophene-2-acetamide, 5-chloro-N-[4-[2-(3,4-dimethox-yphenyl)ethyl]phenyl]-3-hydroxy-α-oxo], the “RBL, % Inhibition” value on leukotriene receptor (1.00 E -4 M) turned out to be 25.0%.

Take `O=C(Nc1ccc(CCc2ccccc2O)cc1)C1=C(O)c2ccccc2S(=O)(=O)C1` [Example 38]: the “LDAH, % Inhibition” value in test [1] (2.50 E -5 M) and in test [1] (8.00 E -5 M) was 0.0% each time. In addition, at leukotriene receptor (0.2 nM 3H-LTD4, guinea pig lung membranes, 60 min, 25 °C, read-out: RBL, concentration for 50% inhibition (IC)), the IC50 was 26.5 µM.

For `CCCCCCCCCCc1ccc(NC(=O)C(=O)c2sc3ccc(Cl)cc3c2O)cc1` [Example 135, Benzo[b]thiophene-2-acetamide, 5-chloro-N-(4-decylphenyl)-3-hydroxy-α-oxo], the “RBL, % Inhibition” value on leukotriene receptor (1.00 E -4 M) is given as 43.0%.

Turning to `O=C(O)c1ccc(CCc2ccc(NC(=O)C3CS(=O)(=O)c4ccccc4C3=O)cc2)cc1` (stereo not shown) [Example 12, 4-[2-[4-[[(3,4-Dihydro-4-oxo-2H-1-benzothiopyran-3-yl)carbonyl]amino]phenyl]ethyl]benzoic acid, 1,1-dioxide], the “RBL, % Inhibition” value at leukotriene receptor (1.00 E -4 M) amounted to 0.0%.

With `O=C(Nc1ccc(CCc2ccc(Cl)cc2)cc1)c1sc2ccccc2c1O` [Example 145, Benzo[b]thiophene-2-carboxamide, N-[4-[2-(4-chlorophenyl)ethyl]phenyl]-3-hydroxy], the “RBL, % Inhibition” value on leukotriene receptor (1.00 E -4 M) was 30.0%.

In the case of `O=C(Nc1ccc(CCc2cc(O)c(O)c(O)c2)cc1)C1=C(O)c2ccccc2S(=O)(=O)C1` [Example 36], the “LDAH, % Inhibition” value in test [1] (2.50 E -5 M) was found to be 0.0%. The “RBL, % Inhibition” value is 78.0% and 81.0% at leukotriene receptor (1.00 E -4 M); 7.0% at leukotriene receptor (1.00 E -5 M); 27.0% at leukotriene receptor (2.00 E -5 M); 6.0% on leukotriene receptor (2.00 E -6 M); 80.0% on leukotriene receptor (3.15 E -5 M); 59.0% on leukotriene receptor (5.00 E -5 M). In addition, the “RBL, % Inhibition” value at leukotriene receptor (5.00 E -6 M) was determined as 3.0%.
